Results from ChEMBL document CHEMBL3745631, “Discovery of highly potent and selective Bruton's tyrosine kinase inhibitors: Pyridazinone analogs with improved metabolic stability” (Bioorg Med Chem Lett, 2016).

Tests used:
[1] = system: Liver microsome; test: Intrinsic clearance in human liver microsomes at 1 uM by LC-MS/MS analysis in absence of NADPH; assay type: ADME
[2] = system: Mus musculus; test: Clearance in mouse at 1 mg/kg, iv by LC-MS/MS analysis; assay type: ADME, organism-based; conditions: in vivo
[3] = target: Tyrosine-protein kinase Tec (Homo sapiens) (UniProt P42680); test: Inhibition of TEC (unknown origin) at 1 uM
Chain of Tyrosine-protein kinase Tec (Homo sapiens) (P42680 whole entry): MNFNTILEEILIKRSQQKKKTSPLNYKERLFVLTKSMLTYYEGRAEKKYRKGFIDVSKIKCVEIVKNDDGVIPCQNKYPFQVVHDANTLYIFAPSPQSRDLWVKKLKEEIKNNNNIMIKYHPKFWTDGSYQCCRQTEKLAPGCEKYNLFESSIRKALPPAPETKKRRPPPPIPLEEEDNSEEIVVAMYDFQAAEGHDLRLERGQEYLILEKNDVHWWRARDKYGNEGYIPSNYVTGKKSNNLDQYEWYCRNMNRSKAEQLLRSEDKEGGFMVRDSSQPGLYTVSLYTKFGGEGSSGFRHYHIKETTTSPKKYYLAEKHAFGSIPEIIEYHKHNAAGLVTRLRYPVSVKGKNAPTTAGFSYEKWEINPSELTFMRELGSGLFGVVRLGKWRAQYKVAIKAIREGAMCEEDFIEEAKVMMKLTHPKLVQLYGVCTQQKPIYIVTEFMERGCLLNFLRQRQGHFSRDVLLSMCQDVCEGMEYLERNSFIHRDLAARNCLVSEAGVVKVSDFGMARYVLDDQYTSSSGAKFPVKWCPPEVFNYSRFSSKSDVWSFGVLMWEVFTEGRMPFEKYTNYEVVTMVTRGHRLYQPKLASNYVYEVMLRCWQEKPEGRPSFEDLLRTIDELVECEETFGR

[4] = target: Sphingosine kinase 1 (Homo sapiens) (UniProt Q9NYA1); test: Inhibition of SPHK1 (unknown origin) at 1 uM
[5] = target: Tyrosine-protein kinase Lyn (Homo sapiens) (UniProt P07948); test: Inhibition of LYN (unknown origin) at 1 uM
[6] = target: Calcium/calmodulin-dependent protein kinase type 1 (Homo sapiens) (UniProt Q14012); test: Inhibition of CaMKI (unknown origin) at 1 uM
Chain of Calcium/calmodulin-dependent protein kinase type 1 (Homo sapiens) (Q14012 whole entry, looked up): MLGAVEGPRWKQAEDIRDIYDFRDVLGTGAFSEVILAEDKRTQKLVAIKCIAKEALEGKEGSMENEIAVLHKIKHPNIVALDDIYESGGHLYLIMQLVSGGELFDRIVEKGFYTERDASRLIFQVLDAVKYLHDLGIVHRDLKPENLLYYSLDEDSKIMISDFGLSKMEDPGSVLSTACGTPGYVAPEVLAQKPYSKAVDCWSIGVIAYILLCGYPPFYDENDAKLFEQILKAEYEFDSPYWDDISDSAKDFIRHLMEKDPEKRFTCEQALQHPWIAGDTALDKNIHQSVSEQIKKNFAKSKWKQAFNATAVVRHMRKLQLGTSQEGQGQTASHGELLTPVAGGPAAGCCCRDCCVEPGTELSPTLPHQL

[7] = target: Calcium/calmodulin-dependent protein kinase type 1D (Homo sapiens) (UniProt Q8IU85); test: Inhibition of CaMK1 delta (unknown origin) at 1 uM
[8] = target: Ribosomal protein S6 kinase alpha-3 (Homo sapiens) (UniProt P51812); test: Inhibition of Rsk2 (unknown origin) at 1 uM
[9] = target: Dual specificity protein kinase CLK2 (Homo sapiens) (UniProt P49760); test: Inhibition of CLK2 (unknown origin) at 1 uM
[10] = target: 3-phosphoinositide-dependent protein kinase 1 (Homo sapiens) (UniProt O15530); test: Inhibition of PDK1 (unknown origin) at 1 uM by direct binding assay
[11] = target: Maternal embryonic leucine zipper kinase (Homo sapiens, UniProt Q14680); test: Inhibition of MELK (unknown origin)
[12] = target: Ephrin type-B receptor 1 (Homo sapiens) (UniProt P54762); test: Inhibition of EphB1 (unknown origin) at 1 uM
[13] = target: Serine/threonine-protein kinase PAK 6 (Homo sapiens) (UniProt Q9NQU5); test: Inhibition of PAK6 (unknown origin) at 1 uM
[14] = target: Aurora kinase A (Homo sapiens) (UniProt O14965); test: Inhibition of AuroraA (unknown origin) at 1 uM
[15] = target: MAP kinase-interacting serine/threonine-protein kinase 1 (Homo sapiens) (UniProt Q9BUB5); test: Inhibition of MKNK1 (unknown origin) at 1 uM
[16] = target: Ribosomal protein S6 kinase beta-1 (Homo sapiens) (UniProt P23443); test: Inhibition of p70S6K (unknown origin) at 1 uM
[17] = target: Myotonin-protein kinase (Homo sapiens) (UniProt Q09013); test: Inhibition of DMPK (unknown origin) at 1 uM
[18] = target: Myosin light chain kinase (Homo sapiens) (UniProt Q32MK0); test: Inhibition of MYLK3 (unknown origin) at 1 uM
[19] = target: Receptor tyrosine-protein kinase erbB-4 (Homo sapiens) (UniProt Q15303); test: Inhibition of ErbB4 (unknown origin) at 1 uM
[20] = target: RAC-alpha serine/threonine-protein kinase (Homo sapiens) (UniProt P31749); test: Inhibition of AKT1 (unknown origin) at 1 uM
[21] = target: Ephrin type-A receptor 1 (Homo sapiens) (UniProt P21709); test: Inhibition of EphA1 (unknown origin) at 1 uM
[22] = target: Homeodomain-interacting protein kinase 1 (Homo sapiens) (UniProt Q86Z02); test: Inhibition of HIPK1 (unknown origin) at 1 uM
[23] = target: Platelet-derived growth factor receptor alpha (Homo sapiens) (UniProt P16234); test: Inhibition of PDGFR alpha (unknown origin) at 1 uM
[24] = target: Protein kinase C beta type (Homo sapiens) (UniProt P05771); test: Inhibition of PKC beta1 (unknown origin) at 1 uM
Chain of Protein kinase C beta type (Homo sapiens) (P05771 2-671 limits assumed): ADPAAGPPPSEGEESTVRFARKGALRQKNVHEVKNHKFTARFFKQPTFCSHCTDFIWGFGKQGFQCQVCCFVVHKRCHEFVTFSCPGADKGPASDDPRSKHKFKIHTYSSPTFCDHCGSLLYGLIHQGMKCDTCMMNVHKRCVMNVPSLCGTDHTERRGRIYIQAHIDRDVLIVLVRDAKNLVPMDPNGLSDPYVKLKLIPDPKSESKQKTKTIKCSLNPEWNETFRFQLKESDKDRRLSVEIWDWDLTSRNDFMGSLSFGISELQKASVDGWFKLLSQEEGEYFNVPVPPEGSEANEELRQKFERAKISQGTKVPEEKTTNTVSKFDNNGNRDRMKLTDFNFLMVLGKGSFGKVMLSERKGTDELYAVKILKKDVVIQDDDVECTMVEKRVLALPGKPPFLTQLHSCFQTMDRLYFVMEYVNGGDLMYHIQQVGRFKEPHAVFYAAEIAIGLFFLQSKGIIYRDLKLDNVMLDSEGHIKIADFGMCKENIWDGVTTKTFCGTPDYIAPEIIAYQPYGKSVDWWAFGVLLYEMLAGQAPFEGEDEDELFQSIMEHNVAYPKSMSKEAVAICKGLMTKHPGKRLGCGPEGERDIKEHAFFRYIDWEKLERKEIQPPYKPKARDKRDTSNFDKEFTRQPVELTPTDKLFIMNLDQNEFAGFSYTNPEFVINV

[25] = target: Vascular endothelial growth factor receptor 1 (Homo sapiens) (UniProt P17948); test: Inhibition of Flt1 (unknown origin) at 1 uM
[26] = target: Dual specificity mitogen-activated protein kinase kinase 3 (Homo sapiens) (UniProt P46734); test: Inhibition of MEK3 (unknown origin) at 1 uM
Chain of Dual specificity mitogen-activated protein kinase kinase 3 (Homo sapiens) (P46734 whole entry): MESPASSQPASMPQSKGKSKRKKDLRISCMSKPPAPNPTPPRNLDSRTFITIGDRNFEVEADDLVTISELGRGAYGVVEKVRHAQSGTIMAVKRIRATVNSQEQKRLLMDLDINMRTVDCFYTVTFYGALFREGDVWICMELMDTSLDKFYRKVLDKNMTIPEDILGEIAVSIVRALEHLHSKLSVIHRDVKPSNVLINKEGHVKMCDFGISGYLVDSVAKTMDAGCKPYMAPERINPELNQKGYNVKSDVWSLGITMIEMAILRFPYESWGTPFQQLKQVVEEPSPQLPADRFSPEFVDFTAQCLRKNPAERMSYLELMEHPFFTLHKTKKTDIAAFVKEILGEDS

[27] = target: Serine/threonine-protein kinase Sgk3 (Homo sapiens) (UniProt Q96BR1); test: Inhibition of SGK3 (unknown origin) at 1 uM
[28] = target: Activated CDC42 kinase 1 (Homo sapiens) (UniProt Q07912); test: Inhibition of TNK2 (unknown origin) at 1 uM
Chain of Activated CDC42 kinase 1 (Homo sapiens) (Q07912 whole entry, looked up): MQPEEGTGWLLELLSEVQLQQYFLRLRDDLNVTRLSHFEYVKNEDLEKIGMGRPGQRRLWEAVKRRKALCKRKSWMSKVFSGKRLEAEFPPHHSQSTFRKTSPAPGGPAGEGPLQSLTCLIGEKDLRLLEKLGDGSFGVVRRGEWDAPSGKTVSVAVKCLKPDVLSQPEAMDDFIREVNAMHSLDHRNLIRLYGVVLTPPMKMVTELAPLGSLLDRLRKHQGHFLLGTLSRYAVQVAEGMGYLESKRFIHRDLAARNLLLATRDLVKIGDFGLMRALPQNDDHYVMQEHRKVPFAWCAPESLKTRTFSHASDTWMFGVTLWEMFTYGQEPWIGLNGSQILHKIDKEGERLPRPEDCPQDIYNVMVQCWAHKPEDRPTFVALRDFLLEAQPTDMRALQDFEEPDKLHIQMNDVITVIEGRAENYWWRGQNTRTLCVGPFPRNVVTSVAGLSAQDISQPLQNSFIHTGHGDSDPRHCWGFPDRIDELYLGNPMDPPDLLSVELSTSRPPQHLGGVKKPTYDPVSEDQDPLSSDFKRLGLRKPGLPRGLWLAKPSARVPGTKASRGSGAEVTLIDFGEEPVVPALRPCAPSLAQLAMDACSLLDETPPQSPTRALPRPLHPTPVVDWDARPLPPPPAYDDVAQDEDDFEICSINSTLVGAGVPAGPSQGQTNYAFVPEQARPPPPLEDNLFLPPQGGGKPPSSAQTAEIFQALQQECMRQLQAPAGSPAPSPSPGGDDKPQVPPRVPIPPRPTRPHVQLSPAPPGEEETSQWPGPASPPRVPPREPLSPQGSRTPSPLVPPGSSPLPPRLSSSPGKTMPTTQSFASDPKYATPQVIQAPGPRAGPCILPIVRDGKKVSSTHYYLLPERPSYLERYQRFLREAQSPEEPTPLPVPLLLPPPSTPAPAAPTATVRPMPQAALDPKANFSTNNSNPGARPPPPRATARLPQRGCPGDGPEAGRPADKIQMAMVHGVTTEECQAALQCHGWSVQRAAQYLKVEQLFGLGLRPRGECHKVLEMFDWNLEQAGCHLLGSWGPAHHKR

[29] = target: Tyrosine-protein kinase Srms (Homo sapiens) (UniProt Q9H3Y6); test: Inhibition of Srm (unknown origin) at 1 uM
[30] = target: Serine/threonine-protein kinase PAK 3 (Homo sapiens) (UniProt O75914); test: Inhibition of PAK3 (unknown origin) at 1 uM
[31] = target: Serine/threonine-protein kinase PLK3 (Homo sapiens) (UniProt Q9H4B4); test: Inhibition of PLK3 (unknown origin) at 1 uM
Chain of Serine/threonine-protein kinase PLK3 (Homo sapiens) (Q9H4B4 whole entry, looked up): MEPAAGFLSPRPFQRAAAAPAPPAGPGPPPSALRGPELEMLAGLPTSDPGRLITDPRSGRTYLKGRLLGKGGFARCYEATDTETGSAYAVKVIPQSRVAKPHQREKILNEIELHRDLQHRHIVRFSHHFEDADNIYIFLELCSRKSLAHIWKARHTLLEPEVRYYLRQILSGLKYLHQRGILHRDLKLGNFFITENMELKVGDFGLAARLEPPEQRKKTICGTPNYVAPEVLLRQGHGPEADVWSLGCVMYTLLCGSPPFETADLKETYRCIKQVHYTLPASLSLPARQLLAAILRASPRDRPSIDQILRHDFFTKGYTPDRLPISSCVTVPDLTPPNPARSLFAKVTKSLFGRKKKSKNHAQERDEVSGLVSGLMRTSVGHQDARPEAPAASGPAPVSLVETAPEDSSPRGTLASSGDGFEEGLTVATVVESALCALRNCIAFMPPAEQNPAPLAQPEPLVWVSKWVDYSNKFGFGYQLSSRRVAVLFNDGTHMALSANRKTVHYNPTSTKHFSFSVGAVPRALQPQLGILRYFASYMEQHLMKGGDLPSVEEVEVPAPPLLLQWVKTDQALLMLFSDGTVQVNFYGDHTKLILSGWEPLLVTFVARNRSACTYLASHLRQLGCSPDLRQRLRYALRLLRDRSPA

[32] = target: Macrophage colony-stimulating factor 1 receptor (Homo sapiens) (UniProt P07333); test: Inhibition of CSF1R (unknown origin) at 1 uM
[33] = target: Receptor-type tyrosine-protein kinase FLT3 (Homo sapiens) (UniProt P36888); test: Inhibition of Flt3 (unknown origin) at 1 uM
[34] = target: Mitogen-activated protein kinase kinase kinase 2 (Homo sapiens) (UniProt Q9Y2U5); test: Inhibition of MEKK2 (unknown origin) at 1 uM
[35] = target: Casein kinase I isoform epsilon (Homo sapiens) (UniProt P49674); test: Inhibition of CK1 epsilon1 (unknown origin) at 1 uM
[36] = target: Homeodomain-interacting protein kinase 4 (Homo sapiens) (UniProt Q8NE63); test: Inhibition of HIPK4 (unknown origin) at 1 uM
[37] = target: Angiopoietin-1 receptor (Homo sapiens) (UniProt Q02763); test: Inhibition of Tie2 (unknown origin) at 1 uM
Chain of Angiopoietin-1 receptor (Homo sapiens) (Q02763 whole entry): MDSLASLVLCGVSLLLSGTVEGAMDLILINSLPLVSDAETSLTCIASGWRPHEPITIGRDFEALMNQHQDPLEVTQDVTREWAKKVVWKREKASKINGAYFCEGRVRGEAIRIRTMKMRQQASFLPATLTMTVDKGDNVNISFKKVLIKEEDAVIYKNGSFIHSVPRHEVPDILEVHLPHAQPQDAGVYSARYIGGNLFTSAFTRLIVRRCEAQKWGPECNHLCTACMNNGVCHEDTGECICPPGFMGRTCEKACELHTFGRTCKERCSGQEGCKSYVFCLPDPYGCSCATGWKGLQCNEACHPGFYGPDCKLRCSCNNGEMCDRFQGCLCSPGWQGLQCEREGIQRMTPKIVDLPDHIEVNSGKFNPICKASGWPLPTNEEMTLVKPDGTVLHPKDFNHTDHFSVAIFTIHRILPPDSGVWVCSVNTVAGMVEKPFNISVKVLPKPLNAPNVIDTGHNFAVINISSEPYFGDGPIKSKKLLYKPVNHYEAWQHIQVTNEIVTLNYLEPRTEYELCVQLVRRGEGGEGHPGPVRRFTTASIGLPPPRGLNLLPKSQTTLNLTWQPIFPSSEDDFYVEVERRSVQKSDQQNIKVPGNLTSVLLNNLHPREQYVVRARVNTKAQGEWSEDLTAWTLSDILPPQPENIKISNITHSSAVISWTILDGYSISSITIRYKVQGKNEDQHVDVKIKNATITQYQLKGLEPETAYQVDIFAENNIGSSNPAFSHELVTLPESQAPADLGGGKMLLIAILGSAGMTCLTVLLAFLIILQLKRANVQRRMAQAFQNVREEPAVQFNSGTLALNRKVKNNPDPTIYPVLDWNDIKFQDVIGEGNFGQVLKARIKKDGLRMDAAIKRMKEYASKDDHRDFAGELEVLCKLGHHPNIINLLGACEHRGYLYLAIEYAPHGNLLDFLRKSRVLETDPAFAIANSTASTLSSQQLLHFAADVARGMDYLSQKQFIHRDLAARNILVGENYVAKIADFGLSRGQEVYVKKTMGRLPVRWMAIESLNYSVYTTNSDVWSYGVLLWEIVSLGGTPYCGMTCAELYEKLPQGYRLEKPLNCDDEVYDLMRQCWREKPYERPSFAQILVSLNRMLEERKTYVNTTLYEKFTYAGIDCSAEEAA

[38] = target: Tyrosine-protein kinase Fyn (Homo sapiens) (UniProt P06241); test: Inhibition of Fyn (unknown origin) at 1 uM
[39] = target: MAP kinase-activated protein kinase 3 (Homo sapiens) (UniProt Q16644); test: Inhibition of MAPKAPK3 (unknown origin) at 1 uM
[40] = target: Inhibitor of nuclear factor kappa-B kinase subunit alpha (Homo sapiens) (UniProt O15111); test: Inhibition of IKK alpha (unknown origin) at 1 uM
[41] = target: G protein-coupled receptor kinase 6 (Homo sapiens) (UniProt P43250); test: Inhibition of GRK6 (unknown origin) at 1 uM
[42] = target: Serine/threonine-protein kinase MARK1 (Homo sapiens) (UniProt Q9P0L2); test: Inhibition of MARK1 (unknown origin) at 1 uM
[43] = target: Calcium/calmodulin-dependent protein kinase kinase 1 (Homo sapiens) (UniProt Q8N5S9); test: Inhibition of CAMKK1 (unknown origin) at 1 uM
[44] = target: Protein kinase C epsilon type (Homo sapiens) (UniProt Q02156); test: Inhibition of PKCepsilon (unknown origin) at 1 uM
[45] = target: Serine/threonine-protein kinase PAK 1 (Homo sapiens) (UniProt Q13153); test: Inhibition of PAK1 (unknown origin) at 1 uM

- CLH [1]: 6 mL/min/kg
- clearance [2]: 43 mL/min/kg
- inhibition [3]: 87.9%
- inhibition [4]: 35.1%
- inhibition [5]: 23.1%
- inhibition [6]: 6.3%
- inhibition [7]: 5.8%
- inhibition [8]: 1.9%
- inhibition [9]: -7%
- inhibition [10]: -8%
- IC50 [11]: > 10 µM
- inhibition [12]: 3.2%
- inhibition [13]: 1.8%
- inhibition [14]: 1.1%
- inhibition [15]: -2.8%
- inhibition [16]: -2.8%
- inhibition [17]: -3.6%
- inhibition [18]: 3%
- inhibition [19]: 2.7%
- inhibition [20]: 2.5%
- inhibition [21]: 2.2%
- inhibition [22]: 0.4%
- inhibition [23]: 0.2%
- inhibition [24]: 0.2%
- inhibition [25]: -0.7%
- inhibition [26]: -1.1%
- inhibition [27]: -1.3%
- inhibition [28]: 15.9%
- inhibition [29]: 15.7%
- inhibition [30]: 14.6%
- inhibition [31]: 14.1%
- inhibition [32]: 13%
- inhibition [33]: 11.6%
- inhibition [34]: 9.2%
- inhibition [35]: 8.6%
- inhibition [36]: 7.8%
- inhibition [37]: 7.4%
- inhibition [38]: 7%
- inhibition [39]: 6.9%
- inhibition [40]: 5.3%
- inhibition [41]: 4.7%
- inhibition [42]: -4.7%
- inhibition [43]: -5.4%
- inhibition [44]: -6.8%
- inhibition [45]: 3.4%
SMILES: Cc1c(-c2cc(Nc3cc4n(n3)CCN(C)C4)c(=O)[nH]n2)ccc(F)c1NC(=O)c1cc2ccccc2s1
